The record followed here is patent US20040006236A1, “Diaminopropionic acid derivatives” (priority 1999, published 2004).

Each structure is given as a SMILES string. pIC50: −log10 of the molar value. Structures can show the parent of a compound that is named as a salt. Where two headings read alike, the source gives them in different places.

The target in test [1] is T1, LFA-1 binding to immobilized ICAM-1 (Homo sapiens, UniProt P05107+P20701).
T1 construct: made in house; host or cells: transfected 293 cells (LFA-1)
The experiment in a line: LFA-1/ICAM-1 protein-protein assay (solid-phase ELISA). The conditions noted are these: read-out: LFA-1/ICAM-1 Protein-Protein Assay IC50. On the procedure:
(a) LFA-1/ICAM-1 screening test: LFA-1/ICAM-1 antagonist activity, defined as the ability of compounds of the invention to block LFA-1 binding to immobilized ICAM-1, was quantitated using a solid-phase ELISA.
(§1) Typically, fusion protein consisting of the entire extracellular domain of human ICAM-1 and the Fc domain of human IgG (5dICAM-Ig) was coated onto 96-well microtiter plates (0.15 μg in 100 μL PBS) overnight at 4° C. The plates were then blocked with 150 μL of 1% BSA/1 mM MnCl2/0.14 M NaCl/20 mM HEPES, pH 7.2 for 1 h at 37° C. and washed 3 times (150 μL each) with Wash Buffer (50 mM Tris, pH 7.4/100 mM NaCl/1 mM MnCl2/0.05% Tween 20). Stock solutions (100 μM in 100% DMSO) of test compounds were diluted 50 fold with 150 μL of Binding Buffer (0.05% BSA/0.05% Tween 20/1 mM MnCl2/0.14 M NaCl/20 mM HEPES, pH 7.2) plus 10% DMSO. […] Fifty μL per well of each dilution was added to the ICAM-1 coated plates, followed by 50 μL per well of membrane-bound LFA-1 (280 ng/mL in Binding Buffer) derived from transfected 293 cells. The plates were shaken vigorously for 1 min (room temperature) and gently for 2 h (37° C.). After incubation, the plates were washed 3 times (150 μL each) with Wash Buffer. Mouse anti-human integrin β2 monoclonal antibody was added (100 μL/well, 1 μg/mL in Binding Buffer) and allowed to incubate for 1 h (37° C.) with gentle agitation. The plates were then washed 3 times with Wash Buffer. HRP-conjugated goat anti-mouse IgG (100 μL/well, 1:1500 dilution in Binding Buffer) was added to each well, followed by incubation for 1 h (37° C.), and concluded by three washes (150 μL each) with Wash Buffer. TMB solution (100 μL per well) was added for color development (10 min). The reaction was stopped by the addition of 100 μL of 1 M H3PO4 to each well. The plates were then read at 450 nm. The inhibitory activities of test compounds were determined by the IC50s.
as §1, with “LFA-1/ICAM-1 antagonist activity, defined as the ability to block LFA-1 binding to immobilized ICAM-1, was quantitated using a solid-phase ELISA. Typically,” for “Typically,”, “(0.05 %” for “(0.05%”, “nm.” for “nm. The inhibitory activities of test compounds were determined by the IC50s.”
Background: An ELISA detects its analyte on a solid surface through an enzyme-linked reagent.

Test [2] concerns T lymphocyte proliferation (C57BI/6 spleen cells with irradiated BALB/c spleen cells). The experiment in a line: Mixed lymphocyte reaction (MLR), one-way. It counts as cell-based, mice. The conditions noted are these: read-out: MLR IC50. The text has this:
Admixture of murine spleen cells from two different inbred strains of mice induces proliferation of T lymphocytes. The magnitude of T cell proliferation depends on the extent of disparity in the major histocompatibility antigens between the two strains. Splenic T lymphocytes from both strains proliferate due to alloantigen recognition, a process for which the interaction of ICAM-1 on antigen-presenting cells with LFA-1 on lymphocytes is necessary. The ability of antagonists to inhibit T lymphocyte proliferation following recognition of alloantigens was assessed in a one-way MLR, where cells from one strain were irradiated to permit measurement of the proliferative response of cells from the other strain. Spleen cells were washed three times in tissue culture medium (TCM; see below). […] One hundred microliters of serial dilutions of antagonists or TCM were added to the spleen cell mixture. The total volume in each well was 200 μL. TCM was RPMI1640 containing 10% heat-inactivated fetal bovine serum, […] L-glutamine, 100 Units/ml each of penicillin and streptomycin and 5×10^−5 M 2-mercaptoethanol. Dilutions of antagonists were prepared in TCM. Plates were incubated in 5% CO2 for 3 days. On the third day, 0.5 μCi of tritiated thymidine (10 μCi/mL) was added to all the wells. Cells were harvested 6 h later on a 96-well plate harvester and the amount of tritiated thymidine incorporated was assessed in a liquid scintillation counter.

T1 sequence (P20701 26-1170): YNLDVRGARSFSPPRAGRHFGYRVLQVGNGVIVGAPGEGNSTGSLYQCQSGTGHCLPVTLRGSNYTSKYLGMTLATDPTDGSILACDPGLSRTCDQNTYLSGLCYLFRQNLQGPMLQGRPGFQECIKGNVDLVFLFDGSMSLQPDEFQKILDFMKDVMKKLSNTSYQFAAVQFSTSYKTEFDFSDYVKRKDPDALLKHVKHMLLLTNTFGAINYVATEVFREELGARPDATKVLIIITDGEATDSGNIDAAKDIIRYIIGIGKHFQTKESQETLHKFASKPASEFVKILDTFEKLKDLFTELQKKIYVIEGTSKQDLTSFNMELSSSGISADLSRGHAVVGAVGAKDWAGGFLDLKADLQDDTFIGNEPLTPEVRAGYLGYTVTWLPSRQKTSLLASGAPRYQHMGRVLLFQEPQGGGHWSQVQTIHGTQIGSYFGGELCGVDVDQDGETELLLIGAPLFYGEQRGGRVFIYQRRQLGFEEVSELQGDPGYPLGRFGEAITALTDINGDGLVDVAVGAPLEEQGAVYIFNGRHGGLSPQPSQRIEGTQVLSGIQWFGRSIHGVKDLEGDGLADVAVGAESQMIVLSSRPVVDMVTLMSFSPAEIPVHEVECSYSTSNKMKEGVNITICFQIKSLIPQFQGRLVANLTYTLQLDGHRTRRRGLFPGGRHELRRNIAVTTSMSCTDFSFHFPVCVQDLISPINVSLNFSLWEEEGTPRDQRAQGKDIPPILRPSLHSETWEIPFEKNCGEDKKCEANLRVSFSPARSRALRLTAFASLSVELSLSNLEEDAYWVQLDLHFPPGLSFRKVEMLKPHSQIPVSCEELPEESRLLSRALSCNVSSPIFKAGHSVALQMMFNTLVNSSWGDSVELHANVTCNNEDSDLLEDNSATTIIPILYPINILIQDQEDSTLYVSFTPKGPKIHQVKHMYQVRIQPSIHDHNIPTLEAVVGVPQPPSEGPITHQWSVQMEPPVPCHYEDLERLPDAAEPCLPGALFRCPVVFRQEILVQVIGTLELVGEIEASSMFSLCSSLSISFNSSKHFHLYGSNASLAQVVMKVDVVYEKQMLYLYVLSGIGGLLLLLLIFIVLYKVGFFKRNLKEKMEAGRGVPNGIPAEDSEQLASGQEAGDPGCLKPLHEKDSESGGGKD
T1 sequence (P05107 23-769): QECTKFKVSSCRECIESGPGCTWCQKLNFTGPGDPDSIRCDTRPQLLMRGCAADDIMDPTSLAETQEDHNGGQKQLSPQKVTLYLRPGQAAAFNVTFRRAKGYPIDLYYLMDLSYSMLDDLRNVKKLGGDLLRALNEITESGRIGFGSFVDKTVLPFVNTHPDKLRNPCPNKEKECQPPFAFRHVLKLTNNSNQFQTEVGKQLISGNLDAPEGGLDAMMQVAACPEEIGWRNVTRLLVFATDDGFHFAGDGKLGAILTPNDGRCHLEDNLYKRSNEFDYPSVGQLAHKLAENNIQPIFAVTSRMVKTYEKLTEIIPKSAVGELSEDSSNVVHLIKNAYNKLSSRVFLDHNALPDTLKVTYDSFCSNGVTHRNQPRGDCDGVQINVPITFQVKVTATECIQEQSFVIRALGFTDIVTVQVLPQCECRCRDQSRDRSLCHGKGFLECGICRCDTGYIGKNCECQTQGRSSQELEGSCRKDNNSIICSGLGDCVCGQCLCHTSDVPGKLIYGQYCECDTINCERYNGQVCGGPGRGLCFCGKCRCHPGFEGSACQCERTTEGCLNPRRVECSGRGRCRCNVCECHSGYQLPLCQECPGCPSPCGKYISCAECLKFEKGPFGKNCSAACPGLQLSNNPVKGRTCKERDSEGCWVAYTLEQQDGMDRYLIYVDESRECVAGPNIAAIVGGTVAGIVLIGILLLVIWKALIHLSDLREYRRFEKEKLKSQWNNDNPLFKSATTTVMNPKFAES

With `COc1cc(C(=O)NC[C@H](NC(=O)c2ccc(C(=O)NCc3cccc(O)c3)cc2Cl)C(=O)O)nc2ccccc12` [Example 182], the pIC50 in test [1] was 7.82.

Turning to `O=C(Cc1ccccc1)NC[C@H](NC(=O)c1c(Cl)cccc1Cl)C(=O)O` [Example 204], the pIC50 in test [1] was 7.38. With `O=C(Cc1ccc([N+](=O)[O-])cc1)NC[C@H](NC(=O)c1c(Cl)cccc1Cl)C(=O)O` [Example 205], the pIC50 in test [1] is 7.51. On the same count and under the same terms, with `O=C1CC[C@@H](C(=O)NC[C@H](NC(=O)c2c(Cl)cccc2Cl)C(=O)O)O1` [Example 208] the figure was 7.64.

As for `O=C(N[C@@H](CNC(=O)C1CC1)C(=O)O)c1c(Cl)cccc1Cl` [Example 210], the pIC50 in test [1] was 7.44.

Consider `O=C(N[C@@H](CNC(=O)C1CCC1)C(=O)O)c1c(Cl)cccc1Cl` [Example 212], for which the pIC50 in test [1] is 7.44. Still for that read-out and setting: to `O=C(N[C@@H](CNC(=O)C1CCCC1)C(=O)O)c1c(Cl)cccc1Cl` [Example 213] belongs 7.51. The same measure, in the same setting: to `O=C(N[C@@H](CNC(=O)C1CCCCC1)C(=O)O)c1c(Cl)cccc1Cl` [Example 215] belongs 7.46; to `O=C(/C=C/c1cccs1)NC[C@H](NC(=O)c1c(Cl)cccc1Cl)C(=O)O` [Example 218], 7.48; to `COc1cccc(C(=O)NC[C@H](NC(=O)c2c(Cl)cccc2Cl)C(=O)O)c1` [Example 221], 7.62. The same measure, in the same setting: to `O=C(NC[C@H](NC(=O)c1c(Cl)cccc1Cl)C(=O)O)c1ccc2[nH]ccc2c1` [Example 225] belongs 7.51. In the case of `Cc1cccc(C(=O)NC[C@H](NC(=O)c2c(Cl)cccc2Cl)C(=O)O)n1` [Example 227], the pIC50 in test [1] is 7.68; in test [2] (Mus musculus, T-lymphocyte) it was 5.07. The matching figures for `N[C@H](Cc1ccc(O)cc1)C(=O)NC[C@H](NC(=O)c1ccc(C(=O)NCc2cccc(O)c2)cc1Cl)C(=O)O` [Example 274]: 8.36 and 5.43. In the same order, the values of `N[C@H](CC(=O)O)C(=O)NC[C@H](NC(=O)c1ccc(C(=O)NCc2cccc(O)c2)cc1Cl)C(=O)O` [Example 275] are 8.66 and 6.27. The matching figures for `Nc1cccc(C(=O)NC[C@H](NC(=O)c2ccc(C(=O)NCc3cccc(O)c3)cc2Cl)C(=O)O)c1` [Example 288]: 8.92 and 6.68. In the case of `N[C@@H](CO)C(=O)NC[C@H](NC(=O)c1ccc(C(=O)NCc2cccc(O)c2)cc1Cl)C(=O)O` [Example 292], the pIC50 in test [1] was 8.27; in test [2] (Mus musculus, T-lymphocyte), 5.44. For `O=C(NCc1cccc(O)c1)c1ccc(C(=O)N[C@@H](CNC(=O)c2ccccc2)C(=O)O)c(Cl)c1` [Example 304, 3-benzoylamino-N-[2-chloro-4-[[[(3-hydroxyphenyl)methyl]amino]carbonyl]benzoyl]-L-alanine, sodium salt], the figures for the pIC50 in test [1] and in test [2] (sodium salt) were 8.96 and 6.57, respectively. Turning to `CCCCS(=O)(=O)NC[C@H](NC(=O)c1ccc(C(=O)N[C@H](C)c2cccc3ccccc23)cc1Cl)C(=O)O` [Example 361, 3-(1-butanesulfonylamino)-N-[2-chloro-4-[[[(1R)-1-(1-naphthalenyl)ethyl]amino]carbonyl]benzoyl]-L-alanine], the pIC50 is 7.38 in test [1] and 4.67 in test [2] (Mus musculus, T-lymphocyte).

Consider `Nc1cccc(C(=O)NCc2ccc(C(=O)N[C@@H](CNC(=O)c3ccccc3)C(=O)O)c(Cl)c2)c1` [Example 367], for which the pIC50 in test [1] is 7.39; in test [2] (Mus musculus, T-lymphocyte), 4.77. In the same order, the values of `O=C(NCc1ccc(C(=O)N[C@@H](CNC(=O)c2ccccc2)C(=O)O)c(Cl)c1)c1cnc2ccccc2c1` [Example 370] are 7.40 and 4.96.
